Structures can show the parent of a compound that is named as a salt.
Assays:
[1] = target: T1, hα7-wt nAChR stably expressed in the GH4C1 cell line (Homo sapiens, UniProt P36544); assay: Ca2+ flux imaging (FLIPR) of PAM activity with choline as agonist; format: cell-based; details: efficacy relative to 100 μM choline alone (defined as 1); peak fluorescence, fluo-4AM; compounds tested 0.1 μM to 30 μM, efficacy criterion at 10 μM
T1 construct: expressed in transfected cells
T1 sequence (P36544 23-502): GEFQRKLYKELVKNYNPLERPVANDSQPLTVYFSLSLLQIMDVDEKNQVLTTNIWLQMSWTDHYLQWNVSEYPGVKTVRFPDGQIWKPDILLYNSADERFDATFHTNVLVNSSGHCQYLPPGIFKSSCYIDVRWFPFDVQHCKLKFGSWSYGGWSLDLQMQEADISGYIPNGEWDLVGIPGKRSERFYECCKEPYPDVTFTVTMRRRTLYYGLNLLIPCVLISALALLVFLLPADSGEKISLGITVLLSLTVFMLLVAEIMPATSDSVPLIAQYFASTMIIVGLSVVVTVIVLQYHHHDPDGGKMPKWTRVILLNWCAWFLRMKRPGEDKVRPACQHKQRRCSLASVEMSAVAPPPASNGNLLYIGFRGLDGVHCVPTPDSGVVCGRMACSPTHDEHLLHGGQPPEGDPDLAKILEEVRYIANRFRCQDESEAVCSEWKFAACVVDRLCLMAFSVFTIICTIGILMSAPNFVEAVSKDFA

melting point [°C] | SMILES | Activity Range [1]
205.3 to 205.8 | COCc1sc(Nc2cc(Cl)ccc2Cl)nc1-c1ccncc1 [Compound 136] | E (E denotes an efficacy from at least 4.5)
186 to 187 | NC(=O)Cc1sc(Nc2cccc(C(F)(F)F)c2)nc1-c1ccccc1 [Compound 1, 2-[4-Phenyl-2-(3-trifluoromethyl-phenylamino)-thiazol-5-yl]-acetamide] | C (C denotes an activity range from 2.0 till 3.0)
172.8 to 175 | OCc1sc(Nc2cc(Cl)ccc2Cl)nc1-c1ccccc1 [int. 23] | D (D denotes an activity range from 3.0 till 4.5)
248 | Fc1ccc(Nc2nc(-c3cnc4ccccn34)cs2)cc1C(F)(F)F (as salt: HCl) [Compound 9] | –
126.2 to 126.8 | COc1ccc(Nc2nc(-c3ccncc3)c(CO)s2)cc1 [Compound 122, 2-[(4-methoxyphenyl)amino]-4-(4-pyridinyl)-5-thiazolemethanol] | E (E denotes an efficacy from at least 4.5)
215.5 to 218.9 | O=C(NCc1sc(Nc2cccc(C(F)(F)F)c2)nc1-c1cccnc1)c1ccccc1 [Compound 164] | E (E denotes an efficacy from at least 4.5)
175 | Cc1cc(Nc2nc(-c3ccc(Cl)nc3)cs2)ccc1F [Compound 2] | D (D denotes an activity range from 3.0 till 4.5)
237.2 to 244 | CNC(=O)Cc1sc(Nc2cc(Cl)ccc2Cl)nc1-c1ccncc1 [Compound 163] | E (E denotes an efficacy from at least 4.5)
249.6 to 257.1 | NC(=O)Cc1sc(Nc2cc(Cl)ccc2Cl)nc1-c1ccncc1 [Compound 113, 2-[(2,5-dichlorophenyl)amino]-4-(4-pyridinyl)-5-thiazoleacetamide] | E (E denotes an efficacy from at least 4.5)
156.8 to 163.5 | CCOC(=O)Cc1sc(Nc2cc(Cl)ccc2Cl)nc1-c1ccncc1 [int. 30] | E (E denotes an efficacy from at least 4.5)
213.6 to 219.8 | CS(=O)(=O)NCc1sc(Nc2cccc(C(F)(F)F)c2)nc1-c1cccnc1 [Compound 109] | E (E denotes an efficacy from at least 4.5)
– | COc1ccc(OC)c(-c2csc(Nc3ccccc3Cl)n2)c1 [Compound 43] | B (B denotes an activity range from 1.5 till 2.0)
– | COCc1nc(Nc2cccc(C(F)(F)F)c2)sc1C(=O)OC [Compound 103] | E (E denotes an efficacy from at least 4.5)
– | c1ccn2c(-c3csc(Nc4ccc5c(c4)CCO5)n3)cnc2c1 [Compound 46] | C (C denotes an activity range from 2.0 till 3.0)
– | Clc1cccc(Nc2nc(-c3cnc4sccn34)cs2)c1 [Compound 61] | C (C denotes an activity range from 2.0 till 3.0)
– | OCc1sc(Nc2ccc(F)c(C(F)(F)F)c2)nc1-c1ccncc1 [Compound 89] | E (E denotes an efficacy from at least 4.5)
– | COc1cc(OC)c(Nc2nc(-c3ccc(F)c(F)c3)c(CC(N)=O)s2)cc1Cl [Compound 130] | E (E denotes an efficacy from at least 4.5)
– | CC(=O)c1sc(Nc2cc(Cl)ccc2Cl)nc1C [Compound 110] | E (E denotes an efficacy from at least 4.5)
– | COc1ccc(Nc2nc(-c3cc(Cl)c(OC)cc3OC)c(CO)s2)c(OC)c1 [Compound 126] | E (E denotes an efficacy from at least 4.5)
– | FC(F)(F)c1cccc(Nc2nc(-c3ccccc3)cs2)c1 [int. 1] | C (C denotes an activity range from 2.0 till 3.0)
– | CCOC(=O)c1ccc(Nc2nc(-c3cccnc3)c(C)s2)cc1 [Compound 142] | E (E denotes an efficacy from at least 4.5)
– | COc1ccc(Nc2nc(C(F)(F)F)c(CO)s2)cc1 [Compound 118] | E (E denotes an efficacy from at least 4.5)

From patent publication US9388175B2, “2-aniline-4-aryl substituted thiazole derivatives” (Janssen Pharmaceutica N.V., priority 2005, dated 2016)
